Measurements: PubChem BioAssay AID1845200 (Molecular Pharmacology Branch, DTP, NCI, 2023)
Where “and” joins values, the source holds several entries; their conditions need not be identical. Equal values may be shown once.

System: ASPS-1 complex tumor spheroids, viability
Experiment: Anticancer human tumor ASPS-1 cell line growth inhibition;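 also: spheroids exposed to agents for 7 days after 3 days of growth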;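 as to viability, T/C: 100% = DMSO vehicle treated spheroids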
Conditions: for viability, T/C: stronger effect = lower value
Procedure, shortened: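 Complex spheroids of malignant cells with endothelial cells and mesenchymal stem cells; agents alone or combined, from near clinical Cmax (or 10 microM if unknown) down in half-log steps, 0.25% DMSO final.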

[1] = curve of first compound, second compound 0.003 µM

`CC(C)n1c(=O)n(C)c2cnc3cc(F)c(-c4ccc(OCCCN5CCCCC5)nc4)cc3c21` + COc1cc2c(cc1O)CCNC21CSC2c3c(OC(C)=O)c(C)c4c(c3C(COC1=O)N1C(O)C3Cc5cc(C)c(OC)c(O)c5C(C21)N3C)OCO4 showed an IC50 (curve of first compound, second compound 30 pM) greater than 10 µM, an IC50 (curve of first compound, second compound 94.9 pM) greater than 10 µM and an IC50 (curve of first compound, second compound 0.0003 µM) of 0.868 µM. For the same molecule, the IC50 (curve of first compound, second compound 0.000949 µM) was less than 0.0316 µM, the IC50 [1] was less than 0.0316 µM and the viability, T/C (second compound 30 pM, first compound 0.0316 µM) was 105%. The viability, T/C (second compound 30 pM, first compound 0.1 µM) was 99.5%, the viability, T/C (second compound 30 pM, first compound 0.316 µM) was 98.2% and the viability, T/C (second compound 30 pM, first compound 1 µM) was 92.5%. For the same molecule, the viability, T/C (second compound 30 pM, first compound 3.16 µM) was 83.7%, the viability, T/C (second compound 30 pM, first compound 10 µM) was 50% and the viability, T/C (second compound 94.9 pM, first compound 0.0316 µM) was 96.1%. For the same molecule, the viability, T/C (second compound 94.9 pM, first compound 0.1 µM) was 84%, the viability, T/C (second compound 94.9 pM, first compound 0.316 µM) was 78% and the viability, T/C (second compound 94.9 pM, first compound 1 µM) was 72.7%. It also gave a viability, T/C (second compound 94.9 pM, first compound 3.16 µM) of 64.4%, a viability, T/C (second compound 94.9 pM, first compound 10 µM) of 48.7% and a viability, T/C (second compound 0.0003 µM, first compound 0.0316 µM) of 68.7%. It also gave a viability, T/C (second compound 0.0003 µM, first compound 0.1 µM) of 62.7%, a viability, T/C (second compound 0.0003 µM, first compound 0.316 µM) of 54.7% and a viability, T/C (second compound 0.0003 µM, first compound 1 µM) of 50.4%. It also gave a viability, T/C (second compound 0.0003 µM, first compound 3.16 µM) of 41.6%, a viability, T/C (second compound 0.0003 µM, first compound 10 µM) of 31.1% and a viability, T/C (second compound 0.000949 µM, first compound 0.0316 µM) of 48.7%. The viability, T/C (second compound 0.000949 µM, first compound 0.1 µM) was 45.6%, the viability, T/C (second compound 0.000949 µM, first compound 0.316 µM) was 35.3% and the viability, T/C (second compound 0.000949 µM, first compound 1 µM) was 25.1%. For the same molecule, the viability, T/C (second compound 0.000949 µM, first compound 3.16 µM) was 19.9%, the viability, T/C (second compound 0.000949 µM, first compound 10 µM) was 18.1% and the viability, T/C (second compound 0.003 µM, first compound 0.0316 µM) was 15%. It also gave a viability, T/C (second compound 0.003 µM, first compound 0.1 µM) of 5.65%, a viability, T/C (second compound 0.003 µM, first compound 0.316 µM) of 1.44% and a viability, T/C (second compound 0.003 µM, first compound 1 µM) of 0.39%. It also gave a viability, T/C (second compound 0.003 µM, first compound 3.16 µM) of 0.32% and a viability, T/C (second compound 0.003 µM, first compound 10 µM) of 0.46%.

Work on `O=C(c1cc(Cc2n[nH]c(=O)c3ccccc23)ccc1F)N1CCN(C(=O)C2CC2)CC1` + CC[C@@]1(O)C(=O)OCc2c1cc1n(c2=O)Cc2cc3c(CN(C)C)c(O)ccc3nc2-1 yielded an IC50 [1] greater than 30 µM, an IC50 (curve of first compound, second compound 0.00949 µM) greater than 30 µM and an IC50 (curve of first compound, second compound 0.03 µM) greater than 30 µM. The IC50 (curve of first compound, second compound 0.0949 µM) was less than 0.0949 µM, the IC50 (curve of first compound, second compound 0.3 µM) was less than 0.0949 µM and the viability, T/C (second compound 0.003 µM, first compound 0.0949 µM) was 114%. The viability, T/C (second compound 0.003 µM, first compound 0.3 µM) was 107%, the viability, T/C (second compound 0.003 µM, first compound 0.949 µM) was 101% and the viability, T/C (second compound 0.003 µM, first compound 3 µM) was 105%. The viability, T/C (second compound 0.003 µM, first compound 9.49 µM) was 104%, the viability, T/C (second compound 0.003 µM, first compound 30 µM) was 97.3% and the viability, T/C (second compound 0.00949 µM, first compound 0.0949 µM) was 102%. The viability, T/C (second compound 0.00949 µM, first compound 0.3 µM) was 106%, the viability, T/C (second compound 0.00949 µM, first compound 0.949 µM) was 103% and the viability, T/C (second compound 0.00949 µM, first compound 3 µM) was 105%. The viability, T/C (second compound 0.00949 µM, first compound 9.49 µM) was 101%, the viability, T/C (second compound 0.00949 µM, first compound 30 µM) was 93.5% and the viability, T/C (second compound 0.03 µM, first compound 0.0949 µM) was 84.9%. It also gave a viability, T/C (second compound 0.03 µM, first compound 0.3 µM) of 88.8%, a viability, T/C (second compound 0.03 µM, first compound 0.949 µM) of 90.3% and a viability, T/C (second compound 0.03 µM, first compound 3 µM) of 77.4%. For the same molecule, the viability, T/C (second compound 0.03 µM, first compound 9.49 µM) was 71.4%, the viability, T/C (second compound 0.03 µM, first compound 30 µM) was 66.1% and the viability, T/C (second compound 0.0949 µM, first compound 0.0949 µM) was 45.8%. For the same molecule, the viability, T/C (second compound 0.0949 µM, first compound 0.3 µM) was 50%, the viability, T/C (second compound 0.0949 µM, first compound 0.949 µM) was 49% and the viability, T/C (second compound 0.0949 µM, first compound 3 µM) was 48.6%. The viability, T/C (second compound 0.0949 µM, first compound 9.49 µM) was 40.1%, the viability, T/C (second compound 0.0949 µM, first compound 30 µM) was 49.7% and the viability, T/C (second compound 0.3 µM, first compound 0.0949 µM) was 49.1%. For the same molecule, the viability, T/C (second compound 0.3 µM, first compound 0.3 µM) was 45.4%, the viability, T/C (second compound 0.3 µM, first compound 0.949 µM) was 43.1% and the viability, T/C (second compound 0.3 µM, first compound 3 µM) was 44.2%. For the same molecule, the viability, T/C (second compound 0.3 µM, first compound 9.49 µM) was 35.6% and the viability, T/C (second compound 0.3 µM, first compound 30 µM) was 42.2%.

Molecule `COc1cc(C)[nH]c(=O)c1CN1CCc2c(Cl)cc(C(OC)C3COC3)c(Cl)c2C1=O` (configuration not stated) + Cn1nnc2c(C(N)=O)ncn2c1=O has an IC50 (curve of first compound, second compound 1 µM) greater than 10 µM, an IC50 (curve of first compound, second compound 3.16 µM) greater than 10 µM and an IC50 (curve of first compound, second compound 10 µM) greater than 10 µM. It also gave an IC50 (curve of first compound, second compound 31.6 µM) greater than 10 µM, an IC50 (curve of first compound, second compound 100 µM) greater than 10 µM and a viability, T/C (second compound 1 µM, first compound 0.0316 µM) of 107%. The viability, T/C (second compound 1 µM, first compound 0.1 µM) was 104%, the viability, T/C (second compound 1 µM, first compound 0.316 µM) was 99.2% and the viability, T/C (second compound 1 µM, first compound 1 µM) was 98.6%. It also gave a viability, T/C (second compound 1 µM, first compound 3.16 µM) of 94.7%, a viability, T/C (second compound 1 µM, first compound 10 µM) of 96.7% and a viability, T/C (second compound 3.16 µM, first compound 0.0316 µM) of 103%. For the same molecule, the viability, T/C (second compound 3.16 µM, first compound 0.1 µM) was 101%, the viability, T/C (second compound 3.16 µM, first compound 0.316 µM) was 103% and the viability, T/C (second compound 3.16 µM, first compound 1 µM) was 104%. The viability, T/C (second compound 3.16 µM, first compound 3.16 µM) was 103%, the viability, T/C (second compound 3.16 µM, first compound 10 µM) was 90.8% and the viability, T/C (second compound 10 µM, first compound 0.0316 µM) was 75.3%. For the same molecule, the viability, T/C (second compound 10 µM, first compound 0.1 µM) was 83.9%, the viability, T/C (second compound 10 µM, first compound 0.316 µM) was 94.9% and the viability, T/C (second compound 10 µM, first compound 1 µM) was 86.8%. It also gave a viability, T/C (second compound 10 µM, first compound 3.16 µM) of 91%, a viability, T/C (second compound 10 µM, first compound 10 µM) of 81.2% and a viability, T/C (second compound 31.6 µM, first compound 0.0316 µM) of 80.4%. The viability, T/C (second compound 31.6 µM, first compound 0.1 µM) was 82.5%, the viability, T/C (second compound 31.6 µM, first compound 0.316 µM) was 82.5% and the viability, T/C (second compound 31.6 µM, first compound 1 µM) was 84.1%. For the same molecule, the viability, T/C (second compound 31.6 µM, first compound 3.16 µM) was 82.7%, the viability, T/C (second compound 31.6 µM, first compound 10 µM) was 75.2% and the viability, T/C (second compound 100 µM, first compound 0.0316 µM) was 81.8%. The viability, T/C (second compound 100 µM, first compound 0.1 µM) was 78.6%, the viability, T/C (second compound 100 µM, first compound 0.316 µM) was 72.9% and the viability, T/C (second compound 100 µM, first compound 1 µM) was 72.7%. The viability, T/C (second compound 100 µM, first compound 3.16 µM) was 69% and the viability, T/C (second compound 100 µM, first compound 10 µM) was 70%.

In the case of `CC(C)n1c(=O)n(C)c2cnc3cc(F)c(-c4ccc(OCCCN5CCCCC5)nc4)cc3c21`, the viability, T/C (compound 0.0316 µM) is reported as 95.5% and 110% and 106%, the viability, T/C (compound 0.1 µM) is reported as 108% (2×) and 107% and the viability, T/C (compound 0.316 µM) is reported as 103% and 105% and 101%. For the same molecule, the viability, T/C (compound 1 µM) was 95.2% and 106% and 100%, the viability, T/C (compound 3.16 µM) was 93% and 98.2% and 95.5% and the viability, T/C (compound 10 µM) was 63.6% and 56.2% and 38.7%. For the same molecule, the IC50 (curve of compound) was > 10 µM and 7.97 µM.
